Assay results from PubChem BioAssay AID2060620 (Molecular Pharmacology Branch, DTP, NCI, 2025).

System: 328373-195-R-J1-PDC complex spheroids, viability % test/control
Test: Anticancer human tumor 328373-195-R-J1-PDC patient-derived head and neck squamous carcinoma cell line growth inhibition [CLK]
Conditions: for IC50: curve of first compound; for viability, T/C: stronger effect = lower value
Outline: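 Multi-cell-type spheroids combined patient-derived tumor cells with HUVEC endothelial cells and human mesenchymal stem cells. Paired agents were dosed in half-log steps down from about clinical Cmax, or from 10 microM where Cmax was unknown.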

[1] = second compound 0.0316 µM, first compound 0.0316 µM
[2] = second compound 0.0316 µM, first compound 0.1 µM
[3] = second compound 0.0316 µM, first compound 0.316 µM
[4] = second compound 0.0316 µM, first compound 1 µM
[5] = second compound 0.0316 µM, first compound 3.16 µM
[6] = second compound 0.0316 µM, first compound 10 µM
[7] = second compound 0.1 µM, first compound 0.0316 µM
[8] = second compound 0.1 µM, first compound 0.1 µM
[9] = second compound 0.1 µM, first compound 0.316 µM
[10] = second compound 0.1 µM, first compound 1 µM
[11] = second compound 0.1 µM, first compound 3.16 µM
[12] = second compound 0.1 µM, first compound 10 µM
[13] = second compound 0.316 µM, first compound 0.0316 µM
[14] = second compound 0.316 µM, first compound 0.1 µM
[15] = second compound 0.316 µM, first compound 0.316 µM
[16] = second compound 0.316 µM, first compound 1 µM
[17] = second compound 0.316 µM, first compound 3.16 µM
[18] = second compound 0.316 µM, first compound 10 µM
[19] = second compound 1 µM, first compound 0.0316 µM
[20] = second compound 1 µM, first compound 0.1 µM
[21] = second compound 1 µM, first compound 0.316 µM
[22] = second compound 1 µM, first compound 1 µM
[23] = second compound 1 µM, first compound 3.16 µM
[24] = second compound 1 µM, first compound 10 µM
[25] = second compound 3.16 µM, first compound 0.0316 µM
[26] = second compound 3.16 µM, first compound 0.1 µM
[27] = second compound 3.16 µM, first compound 0.316 µM
[28] = second compound 3.16 µM, first compound 1 µM
[29] = second compound 3.16 µM, first compound 3.16 µM
[30] = second compound 3.16 µM, first compound 10 µM
[31] = second compound 10 µM, first compound 0.0316 µM
[32] = second compound 10 µM, first compound 0.1 µM
[33] = second compound 10 µM, first compound 0.316 µM
[34] = second compound 10 µM, first compound 1 µM
[35] = second compound 10 µM, first compound 3.16 µM
[36] = second compound 10 µM, first compound 10 µM
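Note: spheroids exposed to the agents for 7 days.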

In the case of `C=CC(=O)N1CCN(c2nc(=O)n(-c3c(C)ccnc3C(C)C)c3nc(-c4c(O)cccc4F)c(F)cc23)C(C)C1` (stereo unspecified) + CNC(=O)c1ccc(Nc2nc(OC3CCCC3)c3c(-c4ccc5nc(C)oc5c4)c[nH]c3n2)c(OC)c1, the IC50 (second compound 0.0316 µM) is reported as over 10000 nM, the IC50 (second compound 0.1 µM) is reported as under 31.6 nM and the IC50 (second compound 0.316 µM) is reported as under 31.6 nM. For the same compound, the IC50 (second compound 1 µM) was under 31.6 nM, the IC50 (second compound 3.16 µM) was under 31.6 nM and the IC50 (second compound 10 µM) was under 31.6 nM. The viability, T/C [1] was 57.3%, the viability, T/C [2] was 59.7% and the viability, T/C [3] was 60.2%. It also gave a viability, T/C [4] of 64.9%, a viability, T/C [5] of 65.1% and a viability, T/C [6] of 47.7%. It also gave a viability, T/C [7] of 11.2%, a viability, T/C [8] of 10.2% and a viability, T/C [9] of 11.6%. For the same compound, the viability, T/C [10] was 12.8%, the viability, T/C [11] was 13.2% and the viability, T/C [12] was 9.6%. It also gave a viability, T/C [13] of 8.33%, a viability, T/C [14] of 10.6% and a viability, T/C [15] of 9.38%. The viability, T/C [16] was 10.4%, the viability, T/C [17] was 13.9% and the viability, T/C [18] was 10.3%. For the same compound, the viability, T/C [19] was 10.1%, the viability, T/C [20] was 9.55% and the viability, T/C [21] was 9.73%. The viability, T/C [22] was 10.4%, the viability, T/C [23] was 13.2% and the viability, T/C [24] was 8.42%. The viability, T/C [25] was 10.1%, the viability, T/C [26] was 13.2% and the viability, T/C [27] was 10.9%. For the same compound, the viability, T/C [28] was 10.9%, the viability, T/C [29] was 15.1% and the viability, T/C [30] was 10.7%. The viability, T/C [31] was 12.8%, the viability, T/C [32] was 11.7% and the viability, T/C [33] was 12.2%. The viability, T/C [34] was 13.3%, the viability, T/C [35] was 14.5% and the viability, T/C [36] was 8.55%.

Work on `CCCS(=O)(=O)Nc1ccc(F)c(C(=O)c2c[nH]c3ncc(-c4ccc(Cl)cc4)cc23)c1F` + CNC(=O)c1ccc(Nc2nc(OC3CCCC3)c3c(-c4ccc5nc(C)oc5c4)c[nH]c3n2)c(OC)c1 yielded an IC50 (second compound 0.0316 µM) of over 10000 nM, an IC50 (second compound 0.1 µM) of under 31.6 nM and an IC50 (second compound 0.316 µM) of under 31.6 nM. The IC50 (second compound 1 µM) was under 31.6 nM, the IC50 (second compound 3.16 µM) was under 31.6 nM and the IC50 (second compound 10 µM) was under 31.6 nM. The viability, T/C [1] was 61.7%, the viability, T/C [2] was 59.5% and the viability, T/C [3] was 62.4%. For the same compound, the viability, T/C [4] was 66.1%, the viability, T/C [5] was 56.8% and the viability, T/C [6] was 43.3%. It also gave a viability, T/C [7] of 11.7%, a viability, T/C [8] of 10.9% and a viability, T/C [9] of 12%. The viability, T/C [10] was 15.7%, the viability, T/C [11] was 13.9% and the viability, T/C [12] was 15.6%. The viability, T/C [13] was 10.2%, the viability, T/C [14] was 11.3% and the viability, T/C [15] was 11%. The viability, T/C [16] was 12.2%, the viability, T/C [17] was 10.6% and the viability, T/C [18] was 13.5%. It also gave a viability, T/C [19] of 10.9%, a viability, T/C [20] of 10.5% and a viability, T/C [21] of 11.3%. It also gave a viability, T/C [22] of 10.7%, a viability, T/C [23] of 11.1% and a viability, T/C [24] of 15.2%. For the same compound, the viability, T/C [25] was 10.8%, the viability, T/C [26] was 11.3% and the viability, T/C [27] was 10.3%. The viability, T/C [28] was 11.4%, the viability, T/C [29] was 12.7% and the viability, T/C [30] was 15.8%. For the same compound, the viability, T/C [31] was 13.8%, the viability, T/C [32] was 11.1% and the viability, T/C [33] was 11.2%. For the same compound, the viability, T/C [34] was 14.1%, the viability, T/C [35] was 16.6% and the viability, T/C [36] was 16.4%.

Compound `COC1C=CCC(C)C(C)S(=O)(=O)NC(=O)c2ccc3c(c2)N(CC2CCC21)CC1(CCCc2cc(Cl)ccc21)CO3` (stereo unspecified) + CNC(=O)c1ccc(Nc2nc(OC3CCCC3)c3c(-c4ccc5nc(C)oc5c4)c[nH]c3n2)c(OC)c1 has an IC50 (second compound 0.0316 µM) of 4280 nM, an IC50 (second compound 0.1 µM) of under 31.6 nM and an IC50 (second compound 0.316 µM) of under 31.6 nM. It also gave an IC50 (second compound 1 µM) of under 31.6 nM, an IC50 (second compound 3.16 µM) of under 31.6 nM and an IC50 (second compound 10 µM) of under 31.6 nM. For the same compound, the viability, T/C [1] was 56.2%, the viability, T/C [2] was 70.6% and the viability, T/C [3] was 81.3%. The viability, T/C [4] was 83%, the viability, T/C [5] was 66.2% and the viability, T/C [6] was 4.89%. It also gave a viability, T/C [7] of 13%, a viability, T/C [8] of 13.1% and a viability, T/C [9] of 12.5%. It also gave a viability, T/C [10] of 15.2%, a viability, T/C [11] of 9.14% and a viability, T/C [12] of 2.12%. The viability, T/C [13] was 12.3%, the viability, T/C [14] was 11.6% and the viability, T/C [15] was 11.9%. For the same compound, the viability, T/C [16] was 8.54%, the viability, T/C [17] was 6.49% and the viability, T/C [18] was 5.35%. The viability, T/C [19] was 12.7%, the viability, T/C [20] was 11.2% and the viability, T/C [21] was 9.61%. For the same compound, the viability, T/C [22] was 8.8%, the viability, T/C [23] was 6.45% and the viability, T/C [24] was 5.97%. For the same compound, the viability, T/C [25] was 11.9%, the viability, T/C [26] was 12.1% and the viability, T/C [27] was 10.3%. The viability, T/C [28] was 7.26%, the viability, T/C [29] was 6.87% and the viability, T/C [30] was 11.6%. The viability, T/C [31] was 13.3%, the viability, T/C [32] was 13.5% and the viability, T/C [33] was 10.2%. The viability, T/C [34] was 8.44%, the viability, T/C [35] was 8.98% and the viability, T/C [36] was 9.48%.
